One compound from patent publication US11872262B2, “Means and methods for treating bacterial infections” (VIB VZW, priority 2017, dated 2024) can be followed below.

Each structure is given as a SMILES string. In brackets after ≈: the same amount, converted by molar mass. Residues, ends and D or L forms follow the SMILES beside them.

One data set deals with E coli ATCC 25922. The data set is classed as cell-based, Escherichia coli. How it is done:
Gram negative bacterial strains were cultivated in Luria-Bertani (LB) broth (Difco) and gram positive bacteria strains were grown in a rich medium, brain heart infusion (BHI) broth (Difco, Sparks, MD) at 37° C. Whenever required, growth media were supplemented with appropriate antibiotic to the medium or plates. Escherichia coli DH5α was used for cloning and plasmid amplification. […] Bacterial CFU counting was done on blood agar plates (BD Biosciences). Species identification and antibiograms for all clinical isolates were performed using MALDI-TOF and VITEK® 2 automated system (bioMérieux).
The MICs of active peptides were determined via the Broth microdilution assay according to the EUCAST guideline, which were performed in 96-well polystyrene flat-bottom microtiter plates (BD Biosciences). Briefly, a single colony was inoculated into 5 mL LB medium and grown to the end-exponential growth phase in a shaking incubator at 37° C. Cultures were subsequently diluted to an OD600 of 0.002 ([…]) in fresh LB medium. 100 μL of LB medium with different concentration of peptides ranging from 100 μg/mL to 1 μg/mL were serially diluted to the sterile 96-well plate (at least 3 wells in each plate). […] A multipurpose UV/VIS plate reader at OD590 nm, 1 s shaking measured the absorbance of the growth bacteria using a Perkin Elmer spectrophotometer (1420 Multilabel Counter Victor 3).

A short description of data set [1]: In vitro haemolytic activity test. The data set is classed as cell-based. The note with it: human erythrocytes; read-out: LC50, concentration at which the peptide induces 50% lysis of human erythrocytes. How it is done: The hemolytic activities of peptides were determined by hemolysis against human erythrocytes. Pooled fresh blood was obtained and erythrocytes were collected by centrifugation 3000 rpm for 5 minutes (Anticoagulated by EDTAK) (Cristina et al. 2015). The pellet was washed three times with PBS and was diluted to a concentration of 8% in PBS. 100 μL of 8% Red blood cells solution was mixed with 100 μL of serial dilutions of peptides in PBS buffer in 96 well plates (BD Biosciences). The reaction mixtures were incubated for 1 h at 37° C. Thereupon, the plate was centrifuged for 10 minutes at 3000 rpm and 100 μL of supernatant was transferred to a sterilized 96-well plate (flat bottom). The release of hemoglobin was determined by measuring the absorbance of the supernatant at 405 nm. […] Erythrocytes in 1% Triton and Max used concentration of vehicle were used as control of 100% and 0% hemolysis, respectively.

Data set [2] in a line: Solubility of peptide after ultracentrifugation. The data set is classed as physicochemical. The note with it: 30 min after dissolving. How it is done:
FIG. 1: Activity, cytotoxicity and aggregation of antibacterial aggregating peptides. (A) Time-killing curve of selected peptides against E. coli strain O157 treated at MIC concentration (average and s.d. of 3 replicates). (B, C, D) Transmission electron microcopy (TEM) of cross-sections of E. coli O157 embedded in resin. B is mock treated, C is P2- and D is P105-treated E. coli O157 (2 h). […] (F) Concentration-dependent hemolysis of human erythrocytes by selected peptides (average and s.d. of 3 replicates). (G) Cytoxicity of Colpeptin1 to human HeLa cells measured by CellTiter Blue assay (average and s.d. of 3 replicates) and (H) by LDH release assay (average and s.d. of 3 replicates). […] Data are from a single experiment that was replicated 3 times (J) Histogram of the size distribution of particles calculated from the DLS data recorded of freshly dissolved colpeptin1 using a linear polymer as particle model. […] (M) Fluorescence intensity of the amyloid-specific dye pFTAA added to preparation of colpeptin1, normalised to the intensity observed with amyloid fibrils of the Alzheimer beta-peptide at the same concentration in monomeric units (average and s.d. of 3 replicates). […] (0) Aggregation kinetics of Colpeptin1 monitored by pFTAA fluorescence in the presence of 1 mM hexaphosphate (average and s.d. of 4 replicates). […]

Data set [3] in a line: ELISA on immobilised colpeptin1 with serum of treated animals. The following applies: mice treated for 18 days with 30 mg/kg. The data set is classed as in vivo. How it is done: FIG. 2: Cross seeding and in vivo activity. (A) Fluorescence microscopy image of HeLa cells mixed with E. coli O157 and treated with FITC-labelled Colpeptin1 (green channel). Blue channel is DAPI, red is CellMask Deep Red plasma membrane dye. (D) Inhibitor effect of Colpeptin1 on bacterial growth in the presence of human blood serum (average and s.d. of 3 replicates). (E) ELISA on immobilised colpeptin1 using blood serum of animals treated for 18 days with 30 mg/kg colpeptin1 (3 replicates from 3 mice). […] See materials and methods for details.
Given these positive results, we then established the tolerance of the Swiss mice to the peptide by performing a dose escalation experiment. […] The parameters observed included body weight, food and water consumption, home cage activity and locomotion. […] Based on these observations, we tested the antibacterial efficacy of the colpeptin1 in a mouse bladder infection model. In this model, an inoculum of 50 μL of a 10^8 CFU/mL suspension of E. coli O157:H7 was delivered via the urethra to the bladder of healthy Swiss mice. 1 h post-infection, we administered a single injection of colpeptin1 at 10 mg/kg, either via the urethra (n=15) or intraperitoneally (n=15). 24 h after treatment, the animals were sacrificed and the bacterial titer in kidney, colon, bladder and ureter was determined by plating the macerated tissue (FIG. 2F-l).
For orientation: In an ELISA, binding on a coated surface is turned into a signal by an enzyme label.

What is called MIC is the smallest concentration in the dilution series that meets the test's criterion for growth inhibition. Higher therefore signals weaker potency. For `CC(C)C[C@H](NC(=O)CNC(=O)[C@H](CCCNC(=N)N)NC(=O)[C@@H]1CCCN1C(=O)[C@H](CCCNC(=N)N)NC(=O)[C@H](CCCNC(=N)N)NC(=O)[C@@H](NC(=O)[C@H](CC(C)C)NC(=O)[C@H](C)NC(=O)[C@H](CC(C)C)NC(=O)CNC(=O)[C@H](CC(C)C)NC(=O)CNC(=O)[C@@H](N)CCCNC(=N)N)C(C)C)C(=O)NCC(=O)N[C@@H](CC(C)C)C(=O)N[C@@H](C)C(=O)N[C@@H](CC(C)C)C(=O)N[C@H](C(=O)N[C@@H](CCCNC(=N)N)C(=O)N[C@@H](CCCNC(=N)N)C(=O)O)C(C)C` [Peptide P2] (H-RGLGLALVRRPRGLGLALVRR-OH), in the data set on E coli ATCC 25922, the MIC is 12 µg/mL (≈ 5.22 µM). The HC50 at 1 h in data set [1] was found to be 1100 µg/mL. Also, the “peptide remaining in solution” value in data set [2] was “less than 60%”. In addition, the “antibody response towards the peptide (ELISA on serum)” value in data set [3] is recorded as “no specific antibody response”.
